# According to patent publication US20240307345A1, “R-MDMA and S-MDMA TO ASSIST PSYCHOTHERAPY” (Universitatsspital Basel, priority 2022, published 2024):
# “Also recorded” adds a separate entry of the source.
# Key:
# healthy subjects [1] = assay: Adverse effects (List of Complaints); format: in vivo, human; conditions: for adverse effects 24 to 72 hours after substance administration: 125 mg, compared with placebo
# Description: (§1) Study design: The present study compares the acute subjective, physiological and endocrine effects of S-MDMA (125 mg), R-MDMA (125 and 250 mg), MDMA (125 mg) using a placebo-controlled double-blind 5-period cross-over design in 24 healthy subjects. Conditions are 1.) R-MDMA 125 mg, 2). R-MDMA 250 mg, 3) S-MDMA 125 mg, 4) MDMA 125 mg, 5) placebo. Treatment order is counterbalanced. Washout periods between substance administrations are at least 10 days. Study days include a 10-hour study session with a subsequent single measurement (short visit) the next morning (24 hours after drug administration).
# Adverse effects (list of complaints): The list of complaints (LC) consists of 66 items offering a global score measuring physical and general discomfort (Zerssen, 1976). The LC is administered before (baseline), at the end of the session to cover effects from 0-9 hours and 24 hours after substance administration to cover aftereffects from 9-24 hours. To assess adverse effects after 24 hours, subjects fill out an additional LC 3 days after the test session, covering adverse effects from 24-72 hours. Subjects are additionally be asked to report any adverse events during the sessions or/and between study sessions as assessed at the beginning of the next session and at the EOS visit. Global LC scores are summed up and compared between treatments using analysis of variance.
# healthy subjects [2] = assay: Connectedness subscale of the PES questionnaire; format: in vivo, human
# model of PTSD = conditions: cited from earlier work
# monkeys = conditions: cited from earlier work
# mice [3] = conditions: cited from earlier work
# prolactin (PRL) = conditions: preclinical research; cited from earlier work
# animals [4] = conditions: various animal studies; cited from earlier work
# healthy subjects [5] = assay: Endocrine effects (plasma prolactin and cortisol); format: in vivo, human
# Description: as §1
# Endocrine effects: Cortisol and prolactin: Cortisol and prolactin are determined as biological markers of serotonergic activity (Seifritz et al., 1996). Plasma concentrations are determined by routine immune assays. Oxytocin and vasopressin: MDMA increase circulating oxytocin (Hysek et al., 2014a) and vasopressin or its precursor copeptin (Simmler et al., 2011). These neurohormones are thought to mediate neurocognitive and adverse effects of MDMA and the role of R-versus S-MDMA remains to be explored. Oxytocin and vasopressin plasma levels are measured before and after substance administration. Concentrations are determined using immunoassays.
# animals [6] = conditions: cited from earlier work
# serotonin = conditions: rat, in vivo; cited from earlier work
# [7] = administered repeatedly at high doses; cited from earlier work
# rhesus monkeys [8] = conditions: cited from earlier work
# rhesus monkeys [9] = conditions: indicative of abuse-liability; cited from earlier work
# mice [10] = conditions: cited from earlier work; remark: listed apart in the source
# [11] = tested on: dopamine (DA), norepinephrine (NE), serotonin (5-HT), and oxytocin; conditions: preclinical research; cited from earlier work
# humans = conditions: earlier human study; R-MDMA doses up to 200 mg; cited from earlier work
SMILES,adverse effects 24 to 72 hours after substance administration (healthy subjects [1]),overall adverse effects (healthy subjects [1]; R-MDMA versus (±)-MDMA),"ratings of connectedness, difference between conditions (healthy subjects [2]; 250 mg)",conditioned fear when retention of extinction was assessed (model of PTSD),peak effects on prosocial behaviors (monkeys),peak effects on prosocial behaviors (mice [3]),release of prolactin (PRL) (prolactin (PRL)),social interaction (animals [4]),prolactin release (healthy subjects [5]; 125 mg S-MDMA compared to (±)-MDMA and 125 mg R-MDMA),cortisol release (healthy subjects [5]; 125 mg S-MDMA compared to (±)-MDMA and both doses of R-MDMA),"ratings of connectedness, difference between conditions (healthy subjects [2]; 125 mg)",hyperthermia (animals [6]),depleting serotonin (serotonin),neurotoxicity [7],potency to maintain self-administration (rhesus monkeys [8]),reinstatement of amphetamine responding (rhesus monkeys [9]),conditioned fear during extinction training (model of PTSD),lethal doses (mice [10]),"release of dopamine (DA), norepinephrine (NE), serotonin (5-HT), and oxytocin [11]",activity in humans (humans)
"CN[C@H](C)Cc1ccc2c(c1)OCO2 [R-MDMA, R(−)-MDMA]",only increased; also recorded: increased number of adverse effects,it does not seem that R-MDMA produces overall less adverse effects,no difference,reduced conditioned fear,greater peak effects than S-MDMA,greater peak effects than S-MDMA,release prolactin,Increased social interaction,,,,,,,,,,,,
"CN[C@@H](C)Cc1ccc2c(c1)OCO2 [S-MDMA, S(+)-MDMA]",only increased; also recorded: increased number of adverse effects,,,,,,,only slightly with S-MDMA or not at all,increased more,increased cortisol release more,no difference,induced hyperthermia,more effective,more neurotoxic than R-MDMA,more potent than R-MDMA,reinstated amphetamine responding,reduced conditioned fear during extinction training but not thereafter,similar,mainly releases,more active than the R-enantiomer
